The values that follow come from publication PMC4888278, “Structural determinant for inducing RORgamma specific inverse agonism triggered by a synthetic benzoxazinone ligand” (BMC Structural Biology, 2016).

In test [1] the test system is RORγ. Details: method as in PMID 24239186. The conditions noted are these: SRC1 displacement FRET assay; cited from earlier work.
The target of test [2] is T1, RORγ (Homo sapiens, UniProt P51449).
T1 construct: sub-cloning residues 259 to 518 of a human RORγ cDNA; GST (PreScission site) (N); made in house; host or cells: Escherichia coli BL21 (DE3)
T1 sequence (P51449 259-518): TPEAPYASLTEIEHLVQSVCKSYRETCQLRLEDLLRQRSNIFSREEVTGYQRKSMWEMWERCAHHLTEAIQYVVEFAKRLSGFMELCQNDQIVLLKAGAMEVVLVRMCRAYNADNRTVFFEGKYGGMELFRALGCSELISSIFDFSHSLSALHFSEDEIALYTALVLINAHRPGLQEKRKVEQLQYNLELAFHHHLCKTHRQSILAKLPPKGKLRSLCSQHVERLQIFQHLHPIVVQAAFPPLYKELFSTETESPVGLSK
In words: FRET based assay monitoring coactivator peptide TRAP220 recruitment to RORγ. The test is classed as biochemical. Here is the method:
(§1) FRET-based (Fluorescence Resonance Energy Transfer) assay and the GAL4 Reporter assay were performed as described previously. BIO592 and BIO399 were synthesized (Additional file 1) and belonged to a proprietary library where they were identified as RORγ activity modulators using the FRET-based assay.

Test [3] has as its target T2, RORγ-GAL4 fusion (Homo sapiens, UniProt P51449).
T2 construct: expressed in transfected cells
T2 sequence (P51449 269-508 limits assumed): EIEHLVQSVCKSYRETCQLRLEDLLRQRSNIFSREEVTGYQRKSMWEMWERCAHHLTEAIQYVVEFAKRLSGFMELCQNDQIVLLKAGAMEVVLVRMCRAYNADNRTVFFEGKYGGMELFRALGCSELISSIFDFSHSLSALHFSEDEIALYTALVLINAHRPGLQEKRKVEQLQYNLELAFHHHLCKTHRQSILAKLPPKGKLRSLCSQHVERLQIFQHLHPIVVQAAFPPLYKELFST
Description: GAL4 cellular luciferase reporter assay, RORγ-GAL4 fusion. Format: cell-based. Here is the method:
as §1
(§2) In order to assess the in vivo selectivity profile of BIO399 a cellular reporter assay was implemented where the ligand binding domains of ROR α, β and γ were fused to the DNA binding domain of the transcriptional factor GAL4. The ROR-GAL4 fusion proteins were expressed in cells with the luciferase reporter gene under the control of a GAL4 promoter. […] The LBS of RORs share a high degree of similarity. However, the inverse agonism trigger of BIO399, residue Met358, is a leucine in both RORα and β. This selectivity profile for BIO399 is attributed to the shorter leucine side chain in RORα and β which would not reach the phenylalanine on the AF2 helix further underscoring the role of Met358 as a trigger for RORγ specific inverse agonism (Fig. 7a). Furthermore, RORα contains two phenylalanine residues in its LBS whereas RORβ and γ have a leucine in the same position (Fig. 6b). We hypothesize that the two phenylalanine residues in the LBS of RORα occlude the dihydrobenzoxazepinone ring system of BIO399 from binding it and responsible for the increase in […].
Background: In a reporter assay the amount or activity of a reporter protein is the signal.

Test [4] addresses T3, GAL4 fused to the LBD of RORα (Homo sapiens, UniProt P35398).
T3 construct: cells expressing GAL4 fused to the LBD of ROR α or β, respectively; expressed in transfected cells
T3 sequence (P35398 272-510 limits assumed): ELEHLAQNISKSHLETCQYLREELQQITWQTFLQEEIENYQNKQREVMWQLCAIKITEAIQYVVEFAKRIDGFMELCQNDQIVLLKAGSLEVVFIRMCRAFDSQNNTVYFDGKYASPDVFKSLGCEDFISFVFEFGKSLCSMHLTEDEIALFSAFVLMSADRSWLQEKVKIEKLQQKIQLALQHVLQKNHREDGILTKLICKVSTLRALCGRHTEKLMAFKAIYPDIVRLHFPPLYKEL
Description: GAL4 cellular luciferase reporter assay, GAL4 fused to LBD of RORα. The test is classed as cell-based. Here is the method: as §1, §2

The target in test [5] is T4, GAL4 fused to the LBD of RORβ (Homo sapiens, UniProt Q92753).
T4 construct: cells expressing GAL4 fused to the LBD of ROR α or β, respectively; expressed in transfected cells
T4 sequence (Q92753 222-460 limits assumed): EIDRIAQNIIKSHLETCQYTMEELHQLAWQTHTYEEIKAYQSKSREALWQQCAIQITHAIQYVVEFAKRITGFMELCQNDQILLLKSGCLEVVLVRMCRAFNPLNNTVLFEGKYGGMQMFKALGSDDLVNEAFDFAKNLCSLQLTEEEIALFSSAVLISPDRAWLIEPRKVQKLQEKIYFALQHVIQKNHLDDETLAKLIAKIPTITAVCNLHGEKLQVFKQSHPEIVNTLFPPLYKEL
Description: GAL4 cellular luciferase reporter assay, GAL4 fused to LBD of RORβ. The test is classed as cell-based. Here is the method: as §1, §2

The target of test [6] is T5, RORγ518 (human RORγ ligand binding domain, residues 259-518) (human, UniProt P51449 259-518).
T5 construct: Cloned in pGEX-6P; GST removed with PreScission Protease before SEC, crystallisation and proteolysis; also called GST-RORγ518 (before cleavage); source: E. coli BL21 (DE3), purified (Glutathione Sepharose, PreScission Protease, Superdex 75); not shown: GST, N-terminal, cleaved
T5 sequence (looked up): T1 sequence (P51449 259-518)
Description: crystal structure; RORγ518 8 mg/ml with 0.5 mM EBI96 and 1 mM agonist BIO592; vapor diffusion, 0.1 M HEPES pH 8.0, 25 % PEG3350, 0.2 M NaCl, 18 °C; 2.63 Å, P21, four ternary complexes in the asymmetric unit. Conditions: both partners purified.

One may read the IC50 as the point on the concentration scale where inhibition reaches its midpoint. Take `O=S(=O)(c1ccccc1)N(CC(F)(F)F)c1ccc(C(O)(C(F)(F)F)C(F)(F)F)cc1` [T0901317]: in test [1], the IC50 is […].
One may read the Emax as the size of the effect at its maximum, as opposed to the concentration needed. As a reminder, the EC50 is the concentration at which the effect is half-maximal. Higher therefore signals a less potent agent. Take `CCN1C(=O)COc2cc(N(CC(F)(F)F)S(=O)(=O)c3ccc(C)c(C)c3)ccc21` [BIO592, N-(4-ethyl-3-oxo-3,4-dihydro-2H-benzo[b][1,4]oxazin-7-yl)-3,4-dimethyl-N-(2,2,2-trifluoroethyl)benzenesulfonamide]: the Emax in test [2] (agonist, coactivator peptide TRAP220 recruitment) is 130%. Further, the EC50 in test [2] (agonist, increase of coactivator peptide TRAP220 recruitment to RORγ) was determined as 58 nM.
`CCN1C(=O)C(C)(C)COc2cc(N(CC(F)(F)F)S(=O)(=O)c3ccc(C)c(C)c3)ccc21` [BIO399, N-(9-Ethyl-7,7-dimethyl-8-oxo-6,7,8,9-tetrahydro-5-oxa-9-aza-benzocyclohepten-3-yl)-3,4-dimethyl-N-(2,2,2-trifluoro-ethyl)-benzenesulfonamide]: the IC50 is 43 nM in test [3] (GAL4 cell assay, RORγ, N = 6); 42.5 nM in test [3] (luciferase activity, cells expressing RORγ-GAL4 fusion); 4.7 nM in test [2] (inverse agonist, inhibition of coactivator recruitment in the authors' FRET assay); > 10000 nM in test [4] (GAL4 cell assay, RORα, N = 2); > 1200 nM in test [5] (GAL4 cell assay, RORβ, N = 2). Moreover, the Selectivity in test [4] (GAL4 cell assay, RORγ versus RORα) is reported as >235 X; in test [5] (GAL4 cell assay, RORγ versus RORβ) it was >28.2 X. For the same molecule, the “fold selectivity over RORα” value in test [4] (GAL4 reporter, RORγ versus RORα) was > 235 fold. The “fold selectivity over RORβ” value in test [5] (GAL4 reporter, RORγ versus RORβ) is reported as > 28 fold.

B1: coactivator peptide EBI96 (peptide)
peptide: EFPYLLSLLGEVSPQ
notes: source: synthetic peptide; bought: New England Peptide
For the molecule B1, the binding result in test [6] is “binds”.
